Assay results: EPA's ToxValDB 9.5 (doi:10.2903/j.efsa.2017.4790)

How the values were obtained:
Apis mellifera = details: acute, mortality
Folsomia candida = details: chronic/long-term; mortality
Rattus norvegicus = details: for LD50: acute, mortality
Colinus virginianus = details: acute, oral, mortality
Canidae = details: chronic; duration: 1 years; oral; Dog Other; organ weight
Daphnia magna = details: chronic/long-term; duration: 21 days; reproduction
Oncorhynchus mykiss = details: chronic/long-term; duration: 21 days; behavior

CCCC(=O)Oc1c(Br)cc(C#N)cc1Br [Bromoxynil butyrate]
LD50 (Apis mellifera; dermal): 199 µg/piece | LD50 (Apis mellifera; oral, unspecified): 76.4 µg/piece | NOEC (Folsomia candida): 125 mg/kg | NOAEL (Anas platyrhynchos; chronic/long-term): 15.9 mg/kg-day | LD50 (Rattus norvegicus; M/F): 116 mg/kg-day | LD50 (Colinus virginianus; diet): > 190 mg/kg-day | LD50 (Colinus virginianus): 420 mg/kg-day

CCCCCCC(=O)Oc1c(Br)cc(C#N)cc1Br [Bromoxynil heptanoate]
NOAEL (Canidae): 0.3 mg/kg-day | LD50 (Apis mellifera; dermal): > 201 µg/piece | LD50 (Apis mellifera; oral, unspecified): > 201 µg/piece | NOEC (Folsomia candida): 70.5 mg/kg | NOAEL (Anas platyrhynchos; reproductive): 15.9 mg/kg-day | LD50 (Rattus norvegicus; F): 292 mg/kg-day | NOAEL (Rattus norvegicus; developmental, development): 4 mg/kg-day | LD50 (Colinus virginianus; diet): 1900 mg/kg-day | LD50 (Colinus virginianus): 379 mg/kg-day

N#Cc1cc(Br)c(O)c(Br)c1 [Bromoxynil]
NOAEL (Canidae): 0.3 mg/kg-day | NOEC (Folsomia candida): 56 mg/kg | NOAEL (Anas platyrhynchos; reproductive): 10.9 mg/kg-day | NOEC (Daphnia magna): 3.1 mg/L | NOAEL (Rattus norvegicus; developmental, development): 4 mg/kg-day | NOAEL (Rattus norvegicus; reproduction developmental, body weight): 3.39 mg/kg-day | NOEC (Oncorhynchus mykiss): 2 mg/L
